We go through 33 compounds from patent publication US8541588B2, “Sulfonamide derivatives” (Pfizer Limited, priority 2009, dated 2013).

The target in this experiment is T1, Nav1.7 (or SCN9A) channel; HEK cells stably transfected with hSCN9A (Homo sapiens, UniProt Q15858).
T1 construct: expressed in transfected cells
T1 sequence (Q15858 whole entry): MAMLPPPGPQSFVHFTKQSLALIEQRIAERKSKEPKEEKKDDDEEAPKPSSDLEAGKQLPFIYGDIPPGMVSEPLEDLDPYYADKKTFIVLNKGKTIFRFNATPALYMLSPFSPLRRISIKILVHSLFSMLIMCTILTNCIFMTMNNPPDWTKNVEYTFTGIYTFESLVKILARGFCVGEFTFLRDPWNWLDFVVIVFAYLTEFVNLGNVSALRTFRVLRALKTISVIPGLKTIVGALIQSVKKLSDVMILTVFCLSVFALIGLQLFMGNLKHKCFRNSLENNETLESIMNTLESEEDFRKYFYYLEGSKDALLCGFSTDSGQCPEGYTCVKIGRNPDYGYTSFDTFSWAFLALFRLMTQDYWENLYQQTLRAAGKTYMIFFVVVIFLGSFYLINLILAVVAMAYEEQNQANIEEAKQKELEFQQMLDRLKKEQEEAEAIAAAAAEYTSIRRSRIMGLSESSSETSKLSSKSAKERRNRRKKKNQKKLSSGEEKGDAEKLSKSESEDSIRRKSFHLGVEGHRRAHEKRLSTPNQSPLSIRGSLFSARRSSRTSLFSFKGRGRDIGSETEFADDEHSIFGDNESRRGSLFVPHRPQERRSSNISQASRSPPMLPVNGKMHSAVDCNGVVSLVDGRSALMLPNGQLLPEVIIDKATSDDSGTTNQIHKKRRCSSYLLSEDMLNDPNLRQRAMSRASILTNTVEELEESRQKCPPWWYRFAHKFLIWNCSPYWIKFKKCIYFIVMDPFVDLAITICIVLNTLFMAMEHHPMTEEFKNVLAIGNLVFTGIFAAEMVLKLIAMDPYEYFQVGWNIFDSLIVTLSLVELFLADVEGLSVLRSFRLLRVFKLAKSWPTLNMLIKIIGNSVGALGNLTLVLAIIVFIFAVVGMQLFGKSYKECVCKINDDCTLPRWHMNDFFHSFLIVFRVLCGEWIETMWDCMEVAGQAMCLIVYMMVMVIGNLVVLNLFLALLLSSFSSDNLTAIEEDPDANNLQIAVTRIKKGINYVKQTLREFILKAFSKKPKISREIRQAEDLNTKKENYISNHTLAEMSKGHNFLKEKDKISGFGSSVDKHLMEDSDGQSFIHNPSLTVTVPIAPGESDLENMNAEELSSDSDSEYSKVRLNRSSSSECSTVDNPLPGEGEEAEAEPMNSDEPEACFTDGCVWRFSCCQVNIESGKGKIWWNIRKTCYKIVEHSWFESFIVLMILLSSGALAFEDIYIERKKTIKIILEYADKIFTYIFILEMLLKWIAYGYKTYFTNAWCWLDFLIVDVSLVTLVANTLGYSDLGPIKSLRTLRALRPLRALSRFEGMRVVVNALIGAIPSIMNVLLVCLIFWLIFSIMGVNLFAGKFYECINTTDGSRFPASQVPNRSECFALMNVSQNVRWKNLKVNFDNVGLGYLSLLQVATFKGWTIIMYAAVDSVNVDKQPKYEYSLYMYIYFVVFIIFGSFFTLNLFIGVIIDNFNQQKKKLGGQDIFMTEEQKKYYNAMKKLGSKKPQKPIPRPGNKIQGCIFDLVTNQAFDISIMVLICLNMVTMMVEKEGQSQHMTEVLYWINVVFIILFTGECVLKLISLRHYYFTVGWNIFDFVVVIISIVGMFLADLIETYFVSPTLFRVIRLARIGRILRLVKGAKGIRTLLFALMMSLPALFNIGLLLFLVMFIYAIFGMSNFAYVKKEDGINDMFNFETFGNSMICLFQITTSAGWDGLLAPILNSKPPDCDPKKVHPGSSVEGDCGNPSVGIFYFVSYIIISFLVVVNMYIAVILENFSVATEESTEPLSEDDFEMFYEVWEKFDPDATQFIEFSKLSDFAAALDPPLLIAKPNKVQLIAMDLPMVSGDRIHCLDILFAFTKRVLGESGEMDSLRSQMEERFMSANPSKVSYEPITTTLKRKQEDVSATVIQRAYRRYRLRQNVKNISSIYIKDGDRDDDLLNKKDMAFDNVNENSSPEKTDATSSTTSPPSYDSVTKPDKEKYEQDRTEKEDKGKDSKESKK
Put plainly: Nav1.7 block, PatchXpress 7000 automated whole-cell voltage clamp, estimated IC50 (EIC50). It is filed as cell-based. Particulars: estimated IC50; hSCN9A HEK cells, PatchXpress platform; Examples 283-814.
Usually IC50 stands for the concentration at which inhibition is half-maximal. As for `Cc1cc(-c2cc(C(F)(F)F)ccc2Oc2ccc(S(=O)(=O)Nc3ncns3)cc2C#N)ccn1` [Example 508, 3-cyano-4-[2-(2-methylpyridin-4-yl)-4-(trifluoromethyl)phenoxy]-N-1,2,4-thiadiazol-5-ylbenzenesulfonamide], the IC50 was 0.02 µM.
Next, `N#Cc1cccc(-c2cc(C(F)(F)F)ccc2Oc2ccc(S(=O)(=O)Nc3ncns3)cc2C#N)c1` [Example 509, 3-cyano-4-{[3′-cyano-5-(trifluoromethyl)biphenyl-2-yl]oxy}-N-1,2,4-thiadiazol-5-ylbenzenesulfonamide]: 0.031 µM; `N#Cc1cc(S(=O)(=O)Nc2ncns2)ccc1Oc1ccc(Cl)cc1-c1ccnn1C(F)F` [Example 510, 4-{4-chloro-2-[1-(difluoromethyl)-1H-pyrazol-5-yl]phenoxy}-3-cyano-N-1,2,4-thiadiazol-5-ylbenzenesulfonamide]: 0.077 µM; `N#Cc1cc(S(=O)(=O)Nc2ncns2)ccc1Oc1ccc(Cl)cc1-c1cccc(CN)c1` [Example 511, 4-{[3′-(aminomethyl)-5-chlorobiphenyl-2-yl]oxy}-3-cyano-N-1,2,4-thiadiazol-5-ylbenzenesulfonamide]: 0.0084 µM.
In the case of `N#Cc1cc(S(=O)(=O)Nc2ncc(Br)s2)ccc1Oc1c(Br)cc(Br)cc1-c1ccccc1` [Example 512, N-(5-Bromo-1,3-thiazol-2-yl)-3-cyano-4-[(3,5-dibromobiphenyl-2-yl)oxy]benzenesulfonamide], the half-inhibitory concentration (IC50) is 3.4 µM.
In the case of `Cn1nccc1-c1cc(Cl)ccc1Oc1ccc(S(=O)(=O)Nc2ccc(F)cn2)cc1F` [Example 514, 4-[4-chloro-2-(1-methyl-1H-pyrazol-5-yl)phenoxy]-3-fluoro-N-(5-fluoropyridin-2-yl)benzenesulfonamide], the IC50 was 1.1 µM.
Next, `Cc1nsc(NS(=O)(=O)c2ccc(Oc3ccc(Cl)cc3-c3ccnn3C)c(F)c2)n1` [Example 515, 4-[4-chloro-2-(1-methyl-1H-pyrazol-5-yl)phenoxy]-3-fluoro-N-(3-methyl-1,2,4-thiadiazol-5-yl)benzenesulfonamide]: 1.9 µM; `O=S(=O)(Nc1cscn1)c1cc(Cl)c(Oc2ccc(F)cc2-c2ccnn2CCO)cc1F` [Example 517, 5-chloro-2-fluoro-4-{4-fluoro-2-[1-(2-hydroxyethyl)-1H-pyrazol-5-yl]phenoxy}-N-1,3-thiazol-4-ylbenzenesulfonamide]: 2.2 µM.
Consider `O=S(=O)(Nc1cscn1)c1cc(Cl)c(Oc2cc(C(F)(F)F)ccc2-c2cncnc2)cc1F` [Example 518, 5-chloro-2-fluoro-4-[2-pyrimidin-5-yl-5-(trifluoromethyl)phenoxy]-N-1,3-thiazol-4-ylbenzenesulfonamide], for which the half-inhibitory concentration (IC50) is above 1 µM.
On to `CC(C)(C)n1nccc1-c1cc(F)ccc1Oc1cc(F)c(S(=O)(=O)Nc2cscn2)cc1Cl` [Example 519, 4-[2-(1-tert-butyl-1H-pyrazol-5-yl)-4-fluorophenoxy]-5-chloro-2-fluoro-N-1,3-thiazol-4-ylbenzenesulfonamide], for which the IC50 was 1.2 µM.
The value for `CC(C)(C)n1ccc(-c2cc(F)ccc2Oc2cc(F)c(S(=O)(=O)Nc3cscn3)cc2Cl)n1` [Example 520, 4-[2-(1-tert-butyl-1H-pyrazol-3-yl)-4-fluorophenoxy]-5-chloro-2-fluoro-N-1,3-thiazol-4-ylbenzenesulfonamide] was above 1 µM; that for `O=S(=O)(Nc1cscn1)c1cc(Cl)c(Oc2ccc(F)cc2-c2c[nH]nn2)cc1F` [Example 521, 5-chloro-2-fluoro-4-[4-fluoro-2-(1H-1,2,3-triazol-4-yl)phenoxy]-N-1,3-thiazol-4-ylbenzenesulfonamide] was 2.9 µM.
Next, `Cn1ccc(-c2cc(F)ccc2Oc2cc(F)c(S(=O)(=O)Nc3cscn3)cc2Cl)n1` [Example 522, 5-chloro-2-fluoro-4-[4-fluoro-2-(1-methyl-1H-pyrazol-3-yl)phenoxy]-N-1,3-thiazol-4-ylbenzenesulfonamide]: 7.3 µM; `Cn1nncc1-c1cc(F)ccc1Oc1cc(F)c(S(=O)(=O)Nc2cscn2)cc1Cl` [Example 523, 5-chloro-2-fluoro-4-[4-fluoro-2-(1-methyl-1H-1,2,3-triazol-5-yl)phenoxy]-N-1,3-thiazol-4-ylbenzenesulfonamide]: 2.6 µM.
The value for `Cn1nc(C(F)(F)F)cc1-c1ccc(Oc2cc(F)c(S(=O)(=O)Nc3cscn3)cc2Cl)c(C#N)c1` [Example 524, 5-chloro-4-{2-cyano-4-[1-methyl-3-(trifluoromethyl)-1H-pyrazol-5-yl]phenoxy}-2-fluoro-N-1,3-thiazol-4-ylbenzenesulfonamide] was 0.58 µM; that for `Cn1nccc1-c1cc(F)c(F)cc1Oc1ccc(S(=O)(=O)Nc2nccs2)cc1C#N` [Example 526, 3-cyano-4-[4,5-difluoro-2-(1-methyl-1H-pyrazol-5-yl)phenoxy]-N-1,3-thiazol-2-ylbenzenesulfonamide] was 0.16 µM.
Take `Cn1nc(C(F)(F)F)cc1-c1cccc(Oc2ccc(S(=O)(=O)Nc3nccs3)cc2C#N)c1F` [Example 527, 3-cyano-4-{2-fluoro-3-[1-methyl-3-(trifluoromethyl)-1H-pyrazol-5-yl]phenoxy}-N-1,3-thiazol-2-ylbenzenesulfonamide]: the half-maximal inhibitory concentration (IC50) was 0.14 µM.
In the case of `Cn1nccc1-c1cc(F)ccc1Oc1ccc(S(=O)(=O)Nc2ccncn2)cc1F` [Example 528, 3-fluoro-4-[4-fluoro-2-(1-methyl-1H-pyrazol-5-yl)phenoxy]-N-pyrimidin-4-ylbenzenesulfonamide], the IC50 was 0.74 µM.
Next, `N#Cc1cc(S(=O)(=O)Nc2ncc(F)s2)ccc1Oc1ccc(Cl)c(Cn2ccnc2)c1` [Example 530, 4-[4-chloro-3-(1H-imidazol-1-ylmethyl)phenoxy]-3-cyano-N-(5-fluoro-1,3-thiazol-2-yl)benzenesulfonamide]: 0.23 µM.
As for `COc1cccc(-c2cc(Oc3ccc(S(=O)(=O)Nc4ncc(F)s4)cc3C#N)ccc2Cl)c1` [Example 531, 4-[(6-chloro-3′-methoxybiphenyl-3-yl)oxy]-3-cyano-N-(5-fluoro-1,3-thiazol-2-yl)benzenesulfonamide], the IC50 was 1.1 µM.
As to `COCc1cccc(-c2cc(Oc3ccc(S(=O)(=O)Nc4ncc(F)s4)cc3C#N)ccc2Cl)c1` [Example 532, 4-{[6-chloro-3′-(methoxymethyl)biphenyl-3-yl]oxy}-3-cyano-N-(5-fluoro-1,3-thiazol-2-yl)benzenesulfonamide], the IC50 is 2.9 µM.
For `N#Cc1cc(S(=O)(=O)Nc2ncc(F)s2)ccc1Oc1ccc(Cl)c(Cn2ccnn2)c1` [Example 533, 4-[4-chloro-3-(1H-1,2,3-triazol-1-ylmethyl)phenoxy]-3-cyano-N-(5-fluoro-1,3-thiazol-2-yl)benzenesulfonamide], the IC50 is 0.78 µM.
On to `N#Cc1cc(S(=O)(=O)Nc2ncc(F)s2)ccc1Oc1ccc(Cl)c(Cn2cccn2)c1` [Example 534, 4-[4-chloro-3-(1H-pyrazol-1-ylmethyl)phenoxy]-3-cyano-N-(5-fluoro-1,3-thiazol-2-yl)benzenesulfonamide], for which the IC50 is 0.5 µM.
In the case of `Cn1nc(C(F)(F)F)cc1-c1ccc(Oc2ccc(S(=O)(=O)Nc3ncc(F)s3)cc2C#N)c(F)c1` [Example 535, 3-cyano-4-{2-fluoro-4-[1-methyl-3-(trifluoromethyl)-1H-pyrazol-5-yl]phenoxy}-N-(5-fluoro-1,3-thiazol-2-yl)benzenesulfonamide], the IC50 was 0.17 µM.
`CCn1nc(C(F)(F)F)cc1-c1ccc(Oc2ccc(S(=O)(=O)Nc3ncc(F)s3)cc2C#N)cc1F` [Example 536, 3-cyano-4-{4-[1-ethyl-3-(trifluoromethyl)-1H-pyrazol-5-yl]-3-fluorophenoxy}-N-(5-fluoro-1,3-thiazol-2-yl)benzenesulfonamide]: the IC50 was 0.22 µM.
The value for `CCn1nc(C(F)(F)F)cc1-c1ccc(Oc2ccc(S(=O)(=O)Nc3ncc(F)s3)cc2C#N)c(F)c1` [Example 537, 3-cyano-4-{4-[1-ethyl-3-(trifluoromethyl)-1H-pyrazol-5-yl]-2-fluorophenoxy}-N-(5-fluoro-1,3-thiazol-2-yl)benzenesulfonamide] was 0.025 µM.
As for `Cn1nccc1-c1ccc(Oc2ccc(S(=O)(=O)Nc3ncc(F)s3)cc2C#N)c(C#N)c1` [Example 538, 3-cyano-4-[2-cyano-4-(1-methyl-1H-pyrazol-5-yl)phenoxy]-N-(5-fluoro-1,3-thiazol-2-yl)benzenesulfonamide], the IC50 is 3.4 µM.
Next, `CCn1nc(-c2ccc(Oc3ccc(S(=O)(=O)Nc4ncc(F)s4)cc3C#N)c(F)c2)cc1C(F)(F)F` [Example 540, 3-cyano-4-{4-[1-ethyl-5-(trifluoromethyl)-1H-pyrazol-3-yl]-2-fluorophenoxy}-N-(5-fluoro-1,3-thiazol-2-yl)benzenesulfonamide]: 4 µM; `COc1ccc(-c2ccnn2C)c(Oc2ccc(S(=O)(=O)Nc3nccs3)cc2C#N)c1` [Example 541, 3-cyano-4-[5-methoxy-2-(1-methyl-1H-pyrazol-5-yl)phenoxy]-N-1,3-thiazol-2-ylbenzenesulfonamide]: 0.14 µM.
Next, `Cn1nccc1-c1ccc(F)cc1Oc1ccc(S(=O)(=O)Nc2nccs2)cc1C#N` [Example 542, 3-cyano-4-[5-fluoro-2-(1-methyl-1H-pyrazol-5-yl)phenoxy]-N-1,3-thiazol-2-ylbenzenesulfonamide]: 0.066 µM; `Cc1ccc(-c2ccnn2C)c(Oc2ccc(S(=O)(=O)Nc3nccs3)cc2C#N)c1` [Example 543, 3-cyano-4-[5-methyl-2-(1-methyl-1H-pyrazol-5-yl)phenoxy]-N-1,3-thiazol-2-ylbenzenesulfonamide]: 0.066 µM.
As to `Cn1nccc1-c1ccc(Cl)cc1Oc1ccc(S(=O)(=O)Nc2nccs2)cc1C#N` [Example 544, 4-[5-chloro-2-(1-methyl-1H-pyrazol-5-yl)phenoxy]-3-cyano-N-1,3-thiazol-2-ylbenzenesulfonamide], the IC50 was 0.022 µM.
Next, `Cn1nccc1-c1cc(C2CC2)ccc1Oc1ccc(S(=O)(=O)Nc2nccs2)cc1C#N` [Example 545, 3-cyano-4-[4-cyclopropyl-2-(1-methyl-1H-pyrazol-5-yl)phenoxy]-N-1,3-thiazol-2-ylbenzenesulfonamide]: 0.023 µM.
